Reference: PubChem BioAssay (NCI)
Where “and” joins values, the source holds several entries; their conditions need not be identical. Equal entries are not always repeated.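 Step 1: Grow cells in 96-well plates. Step 2: Expose to compound for 48 hours at 5 concentrations. Step 3: Interpolate endpoints linearly; if unreached, use highest concentration. GI50 is the concentration that inhibits growth by half. TGI is the concentration that stops growth completely.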

Experiments:
Test in all cases: inhibition of tumour cell growth, NCI panel, 48 h
A549 NSCLC = tested on: A549 NSCLC
BT-549 breast = tested on: BT-549 breast
COLO 205 colon = tested on: COLO 205 colon
MDA-MB-231 breast = tested on: MDA-MB-231 breast
MDA-MB-435 = tested on: MDA-MB-435
NCI-H522 lung = tested on: NCI-H522 lung
SF-539 CNS = tested on: SF-539 CNS
SK-MEL-28 melanoma = tested on: SK-MEL-28 melanoma
SK-MEL-5 melanoma = tested on: SK-MEL-5 melanoma
SNB-75 CNS = tested on: SNB-75 CNS
TK-10 renal = tested on: TK-10 renal
U251 CNS = tested on: U251 CNS
UACC-257 melanoma = tested on: UACC-257 melanoma
HOP-18 NSCLC = tested on: HOP-18 NSCLC

Compound	TGI (A549 NSCLC) [µM]	TGI (BT-549 breast) [µM]	TGI (COLO 205 colon) [µM]	TGI (MDA-MB-231 breast) [µM]	TGI (MDA-MB-435) [µM]	TGI (NCI-H522 lung)	TGI (SF-539 CNS) [µM]	TGI (SK-MEL-28 melanoma) [µM]	TGI (SK-MEL-5 melanoma) [µM]	TGI (SNB-75 CNS) [µM]	TGI (TK-10 renal) [µM]	TGI (U251 CNS) [µM]	TGI (UACC-257 melanoma) [µM]	TGI (HOP-18 NSCLC) [µM]	GI50 (NCI-H522 lung)	GI50 (MDA-MB-435) [µM]	GI50 (SK-MEL-5 melanoma) [µM]
O=C(NCCN(CCNC(=O)c1cccc(=O)n1O)CCNC(=O)c1cccc(=O)n1O)c1cccc(=O)n1O	> 100	> 100	> 100	> 100	> 100	> 100 µM	> 100	> 100	> 100	> 100	> 100	> 100	> 100	–	–	–	–
NC(=O)NC(=O)c1cccc(NC(=O)CCl)c1	> 28.1	9.03	2.2	8.38	5.93	3.32 µM	1.5	> 62.2	2.07	7.06	6.76	2.41	13.6	–	–	–	–
N#CCCN(CCC#N)c1ccc(/C=C(/NC(=O)Nc2ccccc2Cl)NC(=O)c2cc([N+](=O)[O-])ccc2Cl)cc1	> 100	–	> 100	–	–	> 100 µM	> 100	> 100	> 100	–	> 100	> 100	–	> 100	–	–	–
O=C(NCc1ccccc1)C1C(=O)C(=O)N(Cc2ccccc2)C1=O (centres undefined)	> 100	–	> 100	–	–	> 100 µM	> 100	> 100	> 100	> 100	> 100	> 100	> 100	> 100	–	–	–
CCOC(=O)C1=NNC(C(=O)c2ccccc2)C1c1ccccc1 (centres undefined)	41.2	4.37	3.69	12.2	3.89	2.02 µM	4.76	3.67	5.78	16.7	6.42	8.48	6.74	–	–	–	–
COC1(OC)C2C=CC1C([C@](C)(N)CO)C2 (some centres undefined)	> 100	> 100	> 100	> 100	> 100	> 100 µM	> 100	> 100	> 100	> 100	> 100	> 100	> 100	–	–	–	–
Cc1cc(C)c(C(=O)C(C)C(c2ccccc2)c2ccc(Cl)cc2)c(C)c1 (centres undefined)	> 100	–	> 100	–	–	> 100 µM and 65.5 µM	> 100	> 100	> 100	> 100	> 100	> 100	> 100	> 100	> 100 µM and 15.9 µM	–	–
CCOC(=O)CCc1ccc(NC(=O)/C=C/c2ccc([N+](=O)[O-])o2)cc1	15.1	4.79	5.29	3.94	0.845	0.548 µM	3.99	3.39	3.49	11.2	4.07	6.42	2.71	–	–	–	–
CCOC(=O)c1csc(-c2cn(C)c3c2C(=O)C(OC)=CC3=O)n1	97.1	> 100	> 89.6	57.8	11.1	> 100 µM	> 82.9	> 100	12.7	> 83.4	> 100	> 100	> 78.9	–	–	–	–
O=S(=O)(CF)OCCCCOS(=O)(=O)CF	–	–	> 100	–	–	> 100 µM	> 100	> 100	> 100	> 100	> 100	> 100	–	> 100	–	–	–
Cc1cc(S(=O)(=O)NC2=NCC(C)(C)CN2)c(S)cc1Cl	49.7	> 100	> 100	> 100	85.1	81.2 µM	> 100	> 100	33.7	> 100	> 100	89	> 100	–	–	–	–
CCCCCCCCCCCCCCCCCCOCC(O)CO (centres undefined)	5.32	–	> 25	–	–	20.9 µM	> 25	> 25	3.65	24.8	–	> 25	> 25	> 2.5	–	–	–
Cc1nn(C(=O)c2ccc(Cl)cc2)c2c1C(c1ccc(Cl)cc1)SC(N)=N2 (centres undefined)	> 10	> 10	> 10	> 10	> 10	> 10 µM	> 10	> 10	> 10	> 10	> 10	> 10	> 10	–	–	–	–
COc1ccc2[nH]c3c(O)c(-c4c(C)cc5c([nH]c6ccc(OC)cc65)c4O)c(C)cc3c2c1	7.97	8.2	–	10.8	8	9.2 µM	8.81	9.64	8.18	7.18	8.19	7.98	8.32	–	–	4.34	4.34
CCCC(C(=O)Nc1cccc2[nH]cnc12)C(=O)OCC (centres undefined)	> 100	> 100	–	> 100	> 100	> 100 µM	> 100	> 100	–	> 100	> 100	> 100	> 100	–	–	–	–
CC(=O)N1N=C(c2ccc3ccccc3c2O)CC1c1ccc(N(C)C)cc1 (centres undefined)	> 100	> 100	> 100	> 100	> 100	> 100 µM	> 100	> 100	> 100	> 100	> 100	> 100	> 100	–	–	–	–
COC(=O)[C@H](C)N(C)C(=O)[C@H](C)N1[C@@H](c2ccccc2)COC1(C)C	> 100	> 100	> 100	> 100	> 100	> 100 µM	> 100	> 100	> 100	> 100	> 100	> 100	> 100	–	–	–	–
Cc1cnc2[nH]c(-c3ccc(Cl)cc3)cc(=O)c2c1	> 100	> 100	> 100	> 19.9	1.97	> 100 µM	6.81	> 100	> 100	> 100	> 100	> 32.4	> 100	–	–	–	–
